Assay results reported in article PMC9775191, “A Subset Screen of the Compounds Australia Scaffold Library Identifies 7-Acylaminodibenzoxazepinones as Potent and Selective Hits for Anti-Giardia Drug Discovery” (Biomedicines, 2022).

Test system: G. duodenalis BRIS/91/HEPU/1279
Test: Primary Giardia screen at 10 µM (live-cell imaging, automated counting)
Type: cell-based, Giardia duodenalis
Settings: for % Inhibition n=1 48h / % Inhibition n=1 24h: first singlicate assay; for % Inhibition n=2 24h / % Inhibition n=2 48h: re-assessment
Method in brief: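 Compound added to 10 μM final in medium with 0.2% DMSO, one well each; plates then held in sealed chambers at 3% O2, 5% CO2 in N2; growth imaged and counted automatically at 24 and 48 h; values normalised to vehicle wells minus media blank.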

Row | Compound | % Inhibition n=1 48h [%] | further results
1 | CNC(=O)N1CCC(c2nc(C)c(C(=O)NCCCOC)s2)CC1 [SN00798240] | 6.4 | 
2 | COc1ccc(-c2noc(CC(=O)N3CCN(c4ccccn4)CC3)n2)cc1 [SN00787724] | 23.4 | 
3 | Cc1cc(-c2csc(S(=O)(=O)Nc3ccc(Cl)c(C(F)(F)F)c3)c2)on1 [SN00797257] | 0.0 | 
4 | O=S(=O)(c1ccc(-c2cnc(C3CC3)o2)cc1)N1CCCCC1 [SN00792043] | 8.3 | 
5 | CC(=O)N1CCc2cc(C)c(S(=O)(=O)NC3CC3)cc21 [SN00798831] | 4.3 | 
6 | Cc1cc(C(=O)N2CCCN(c3cccnn3)CC2)c(C)n1C(C)C [SN00771426] | 0.0 | 
7 | Cc1csc(-n2nc(C)c(CC(=O)N3CCN(c4ccccc4)CC3)c2O)n1 [SN00786646] | 34.3 | 
8 | CC(C)CN1CC(C(=O)N2CCC(Nc3cccnn3)CC2)CC1=O (stereo not drawn) [SN00774466] | 0.0 | 
9 | CN(C)CC1CN(S(=O)(=O)C2CC2)CC12CCOCC2 (stereo not drawn) [SN00801268] | 16.1 | 
10 | COc1ccc(CC(=O)N2CCN(Cc3nc4cc(C(=O)N5CCCC5)ccc4n3C)CC2)cc1 [SN00795130] | 13.8 | 
11 | CCOC(=O)C1CCN(C(=O)c2ccc3c(c2)C(=O)N(c2ccccc2C)C3=O)CC1 [SN00774484] | 0.0 | 
12 | Cc1csc(/C(=C\c2cc(C)n(-c3ccnn3C(C)C)c2C)CN)n1 [SN00770781] | 5.0 | 
13 | COCCn1cc2c3c(cccc31)CN(C(=O)Nc1ccccc1F)CC2 [SN00798581] | 22.0 | 
14 | CCCN(c1ccccc1C(=O)O)S(=O)(=O)c1ccc2[nH]c(=O)[nH]c2c1 [SN00783856] | 12.1 | 
15 | CCCN(C(=O)c1cccc(NC(=O)[C@H]2[C@@H]3C[C@@H]4[C@H]2C(=O)O[C@@H]4C3)c1)c1ccccc1F (relative stereo) [SN00785932] | 2.8 | 
16 | CC1CC(C)CN(C(=O)Cn2cnc3c(nc4n3CCCCC4)c2=O)C1 (stereo not drawn) [SN00788055] | 0.0 | 
17 | Cc1ccc(NC(=O)Cn2c(=O)n(Cc3ccc4c(c3)OCO4)c(=O)c3ncccc32)cc1 [SN00789565] | 0.0 | 
18 | O=C(NCCSc1ccc(Cl)cc1)c1cc(S(=O)(=O)N2CCOCC2)c[nH]1 [SN00777799] | 7.9 | 
19 | Cc1noc(CN2C(=O)NC(C)(c3ccccc3)C2=O)n1 (stereo not drawn) [SN00774045] | 0.0 | 
20 | CSc1ccc(-c2noc(-c3ccc4c(=O)n(Cc5ccccc5)c(=O)[nH]c4c3)n2)cc1 [SN00789400] | 6.5 | 
21 | Cc1noc2ncnc(N3CCCC(C(=O)NC4CCCCCC4)C3)c12 (stereo not drawn) [SN00788598] | 0.0 | 
22 | CCOc1ccc(CCNC(=O)c2c(C)oc3c2C2=NCCN2C=N3)cc1OCC [SN00791607] | 17.8 | 
23 | CC(=O)c1cccc(NS(=O)(=O)c2c(C)n[nH]c2C)c1 [SN00784818] | 5.0 | 
24 | Cc1oc(C2CCC2)nc1C(=O)NC(C)c1ccccn1 (stereo not drawn) [SN00802442] | 17.0 | 

Row | Compound | % Inhibition n=1 48h [%] | further results
25 | CCn1cc(C(=O)NCc2ccccc2)c(=O)c2ccc(C)nc21 [SN00792575] | 6.1 | 
26 | CCOC(=O)N1CCN(C(=O)c2nn(-c3ccccc3)c3c2CCC3)CC1 [SN00778954] | 38.8 | Average % Inhibition 24h: 6.2%; % Inhibition n=1 24h: 12.5%; % Inhibition n=2 24h: 0.0%; Average % Inhibition 48h: 36.1%; % Inhibition n=2 48h: 33.3%
27 | O=C(CN1C(=O)NC2(CCc3ccccc32)C1=O)N1CCCC(c2nnc3ccccn23)C1 (stereo not drawn) [SN00778393] | 0.0 | 
28 | COc1ccccc1-c1nc(C2CCN(C(=O)COc3ccccc3)CC2)no1 [SN00796215] | 15.9 | 
29 | COc1ccc(C(=O)Nc2cc(-c3nc(C)cs3)sc2C)cc1OC [SN00798474] | 27.2 | 
30 | O=C(c1cccc2[nH]ccc12)N1CCC(c2nc(-c3ccccc3)no2)C1 (stereo not drawn) [SN00801115] | 23.0 | 
31 | CCc1csc(C2CCCN(C(=O)c3ccc4c(c3)OCO4)C2)n1 (stereo not drawn) [SN00781524] | 0.0 | 
32 | Cc1nc2sccn2c1-c1nc(-c2cccc3ccccc23)cs1 [SN00776128] | 37.4 | 
33 | COC(=O)CNC(=O)c1cn(-c2ccc(C(F)(F)F)cn2)nn1 [SN00771716] | 0.0 | 
34 | O=C(CCC(=O)N1CCCN(c2nc3cccnc3s2)CC1)NCCc1c[nH]c2ccccc12 [SN00795593] | 0.0 | 
35 | CCOCCn1c(N2CCCCC2)nc(C)cc1=O [SN00799709] | 33.8 | 
36 | Cc1ccc(-c2ncc(C(=O)NC3CCCCCC3)c(C)n2)cc1 [SN00790958] | 0.0 | 
37 | Cc1ccc(NC(=O)Cn2nnc(-c3nc(-c4ccncc4)no3)c2N)cc1 [SN00788097] | 7.5 | 
38 | Cc1cc(N2C(=O)C(O)=C(C(=O)c3ccc(Cl)cc3)C2c2ccc([N+](=O)[O-])cc2)no1 (stereo not drawn) [SN00780175] | 59.1 | Average % Inhibition 24h: 6.4%; % Inhibition n=1 24h: 12.8%; % Inhibition n=2 24h: 0.0%; Average % Inhibition 48h: 29.6%; % Inhibition n=2 48h: 0.0%
39 | COc1ccc(-c2cc3nc4c(c(=O)n3[nH]2)CNCC4)cc1 [SN00800876] | 0.0 | 
40 | Cc1ccc(-c2nc(-c3cccc(-c4ccn[nH]4)c3)no2)cc1 [SN00798298] | 55.6 | Average % Inhibition 24h: 6.3%; % Inhibition n=1 24h: 9.4%; % Inhibition n=2 24h: 3.2%; Average % Inhibition 48h: 41.5%; % Inhibition n=2 48h: 27.4%
41 | COc1ccc(-c2nc(CN3C(=O)C(=O)N(C(C)C)C3=O)cs2)cc1 [SN00769384] | 0.0 | 
42 | CCC1Cn2c(C(=O)NCCN(C)C3CCCCC3)cc3cccc(c32)O1 (stereo not drawn) [SN00788158] | 54.5 | Average % Inhibition 24h: 13.9%; % Inhibition n=1 24h: 11.2%; % Inhibition n=2 24h: 16.5%; Average % Inhibition 48h: 53.7%; % Inhibition n=2 48h: 52.9%
43 | Cc1ccc(-c2nnc(-c3cccnc3N3CCCC3)o2)cc1 [SN00797693] | 0.0 | 
44 | CCC(C)NC(=O)C1CCN(c2cnc(N3CCSCC3)nc2)CC1 (stereo not drawn) [SN00798903] | 12.6 | 
45 | CN(CCc1ccccn1)C(=O)c1cc2nc(-c3ccc(Cl)cc3)cc(C(F)(F)F)n2n1 [SN00784121] | 0.0 | 
46 | CN1C(=O)CC[C@]2(CNC(=O)C3(c4ccccc4)CC3)CCC[C@@H]12 [SN00801306] | 21.4 | 
47 | Fc1cccc(Nc2c3c(nc4ccccc24)CCC3)c1 [SN00784170] | 66.2 | Average % Inhibition 24h: 2.3%; % Inhibition n=1 24h: 4.6%; % Inhibition n=2 24h: 0.0%; Average % Inhibition 48h: 55.5%; % Inhibition n=2 48h: 44.9%
48 | O=S(=O)(c1cccc(F)c1)N1CC(OCc2cccc(F)c2)C1 [SN00792818] | 10.0 | 

Row | Compound | % Inhibition n=1 48h [%] | further results
49 | Cc1sc2ncn(CC3CCCO3)c(=O)c2c1C(=O)Nc1ccc(S(N)(=O)=O)nc1 (stereo not drawn) [SN00793191] | 0.0 | 
50 | O=C(c1cccc(Br)c1)N1CCC(c2nc3ccccc3[nH]2)CC1 [SN00786922] | 0.0 | 
51 | Cc1ccc(-n2nc(C)c3sc(N4CCCC(C(=O)NCc5ccc6c(c5)OCO6)C4)nc32)cc1 (stereo not drawn) [SN00796247] | 0.0 | 
52 | Cc1[nH]c(C)c(S(=O)(=O)N2CCCc3ccccc32)c1C(=O)N1CCCCC1 [SN00791426] | 0.0 | 
53 | c1ccc(-c2cc(CN3CCOC(Cn4cncn4)C3)on2)cc1 (stereo not drawn) [SN00778747] | 6.8 | 
54 | COc1ccc(-n2nnc(-c3nsc(Nc4ccc(Cl)cc4)n3)c2C)cc1 [SN00798137] | 11.6 | 
55 | Cc1ccc(S(=O)(=O)N2CCC3(CC2)NCCN=C3NC2CCCCCC2)c(C)c1 [SN00796055] | 0.0 | 
56 | Cc1ccc(-c2nnn(CC(=O)N3CCCCCC3c3cccn3C)n2)cc1 (stereo not drawn) [SN00778086] | 56.5 | Average % Inhibition 24h: 2.1%; % Inhibition n=1 24h: 0.0%; % Inhibition n=2 24h: 4.1%; Average % Inhibition 48h: 28.3%; % Inhibition n=2 48h: 0.0%
57 | Cc1ncc2c(n1)CN(C(C)c1nc(-c3cccs3)no1)CC2 (stereo not drawn) [SN00807951] | 13.5 | 
58 | CCS(=O)(=O)N1CCC2(CC1)OC(=O)C(C)=C2C(=O)Nc1ccc(C)cc1C [SN00791146] | 0.0 | 
59 | Cc1cc(C)c2c(=O)n(CC(=O)Nc3ccc(Br)cc3)c(=O)n(C)c2n1 [SN00794110] | 0.0 | 
60 | CC(c1nnc(-c2cccs2)o1)N1CCc2cncnc2C1 (stereo not drawn) [SN00783267] | 12.9 | 
61 | CCc1cccc(NC(=O)C2CCCN(S(=O)(=O)c3c(C)noc3C)C2)c1 (stereo not drawn) [SN00784983] | 0.0 | 
62 | CCN(CC)C(=O)C1CSCN1C(=O)c1cc(C)nc2c1nc1n2CCCCC1 (stereo not drawn) [SN00779876] | 62.1 | Average % Inhibition 24h: 1.0%; % Inhibition n=1 24h: 1.9%; % Inhibition n=2 24h: 0.0%; Average % Inhibition 48h: 31.1%; % Inhibition n=2 48h: 0.0%
63 | NC1=C(c2nc3ccccc3s2)CC(=O)N1C1CC1 [SN00776353] | 0.0 | 
64 | COc1cccc(N2CCN(C(=O)C3CCN(c4nc(NC(C)=O)ns4)CC3)CC2)c1 [SN00800160] | 16.2 | 
65 | CCn1c(=O)c(N2CCCC(C(=O)NCCc3c[nH]c4ccccc34)C2)nc2ccccc21 (stereo not drawn) [SN00790077] | 9.8 | 
66 | Cc1nc(N(C)C)ncc1C(=O)O [SN00784957] | 3.0 | 
67 | Cc1c(C(=O)NCCCN2CCOCC2)oc2c1-c1nn(Cc3ccc(Cl)cc3)cc1CC2 [SN00787421] | 1.0 | 
68 | CCc1nnc2sc(-c3ccc(CNC(=O)c4ccc(Br)o4)cc3)nn12 [SN00794046] | 48.2 | 
69 | CCC(OC1CCCC1)C(=O)N1CCN(c2nccn2C)CC1 (stereo not drawn) [SN00782691] | 0.0 | 
70 | COc1ccccc1N1CCN(C(=O)c2ccc3[nH]c(C)c(C)c3c2)CC1 [SN00775216] | 36.6 | 
